Measurements from US20030153081A1, “Viral core protein-cationic lipid-nucleic acid-delivery complexes” (priority 1999, published 2003).

How the values were obtained:
[1] = charge ratios worked out from the sequence; format: physicochemical
Source text: Mu1 is a polycationic peptide comprised of 19 amino acids associated with the core complex of Adenovirus (Table 1) ^27, 32. We compared the DNA binding capacity of Mu1 with the mouse polyomavirus major capsid protein Vp1 by interaction with plasmid DNA in a gel retardation assay. Vp1 is a 19 amino acid peptide that contains a nuclear localization signal ^26 and contains fewer positively charged amino acids than Mu1. It was therefore predicted to have a lower DNA binding capacity.
The success of non-viral gene delivery vehicles as viable alternatives to virus vector-based systems is dependent on the development of complexes with higher and longer lasting transfection efficiencies. Since the initial identification of cationic liposomes as vehicles for the transfer of genetic material into cells there has been a large push to develop better cationic liposome formulations ^5, 7. Most attempts at improving cationic liposomes have been based on structural modifications to the molecule itself ^30. Novel formulations have been developed which have improved transfection efficiencies ^30. However, particular cell types behave differently in regards to cationic liposomal transfection. For example, we found the polypeptide Mu1 better at enhancing cationic liposome mediated transfection than Vp1. This was probably due to Mu1's greater charge ratio. While both peptides are approximately the same molecular weight, the overall charge ratio of Mu1 was more than twice that of Vp1 (Table 1). […] While a small shift in pDNA mobility was detected when 0.25 μg Mu1 was complexed to 1 μg pCMVβ, almost all of the plasmid was retained near the loading well following addition of 0.5 μg Mu1 (FIG. 1). A 0.5/1.0 (w/w) ratio of Mu1 to pCMVβ corresponds to a 1000/1 molar ratio. Each molecule of Mu1 contains 12 residues that could potentially carry a positive charge. The theoretical charge ratio of Mu1 to pCMVβ would then be 1.6 (12000 Mu1 cations to 7500 pCMVβ anions).

ND7 cells = experiment: X-gal histochemistry cell counts, undifferentiated ND7 cells; format: cell-based, rat/mouse
Method: ND7 neurons were plated in 24 well culture dishes at a density of 4×10^4 cells/well and allowed to grow for 24 hrs. The undifferentiated ND7 neurons were then transfected with either pCMVb alone (A), pCMVb complexed with DC-Chol/DOPE (1/3, w/w) (B) or with pCMVb complexed with Mu1 and DC-Chol/DOPE (1/12/6) (C). Forty-eight hours later the cells were fixed and processed for histochemical detection of X-Gal.
DNA and liposomes were combined by the addition of 400 μL serum-free differentiation media and gentle shaking. The DNA: liposome mixture was incubated at room temperature for 20 to 30 minutes before being applied to the cells. The DNA/liposome mixture was then applied to the cells and incubated at 37° C., 5% CO2 for 2 hours after which this media was replaced with complete media Twenty four to 48 hours later the cells were fixed and processed for X-gal histochemistry as described ^31 or harvested for β-galactosidase enzyme assays (Promega Corp.).
Cell counts were performed under ×40 magnification using a Nikon Diaphot inverted microscope. Each transfection was repeated at least three times and at least three separate counts were made for each well.
The β-galactosidase reporter gene assay provides a measure of the overall level of β-galactosidase produced, but gives no information regarding the number of cells transfected. For this reason, we also performed cell counts on transfected ND7 cells. Cells were seeded at a density of 4×10^4 in 24 well culture plates. After 24 hours the cells were washed briefly in serum-free media and transfected with pCMVβ complexed to DC-Chol/DOPE and Mu1 peptide. The ratios used were those found to be optimal in the reporter gene assay, 1:12:6, pCMVβ:Mu1:DC-Chol/DOPE. Using these ratios, we found a 6-fold increase in the number of β galactosidase positive cells (FIGS. 3 & 6).

COS-7 cells = experiment: β-galactosidase enzyme assay, transfection of COS-7 cells; format: cell-based, Green Monkey; conditions: COS-7, same pDNA:Mu1:liposome ratio as optimal for ND7
Method: COS cells were seeded at a density of 60-80% confluence in 24 well culture dishes 24 hrs prior to transfection. Immediately prior to transfection, cells were washed in serum-free media Incubating pCMVβ with Mu1 prior to the addition of the cationic liposome DC-Chol/DOPE formed complexes capable of cellular transfection. In each case 1 μg pCMVβ was complexed with 12 μg Mu1 peptide that had been found optimal for ND7 cells. The pCMVβ:Mu1 complexes were then mixed with 3, 4 and 6 μg DC-Chol/DOPE. COS cells were exposed to transfection complexes for 2 hours then maintained at 37° C., 5% CO2 for another 24 hrs before being harvested and processed for β-galactosidase enzyme assay. Numbers represent means±SD, n=3.
COS-7 cells (derived from Green Monkey kidney) were grown in RPMI 1640 media (BRL) supplemented with 10% fetal bovine serum (BRL) and 100 IU/mL penicillin/streptomycin (BRL).
In order to see whether improved transfections could be achieved in other cell types we performed a similar analysis on COS-7 cells. […] The same ratio of pDNA:Mu1:liposome optimal for ND7 cells was best for COS-7, cells. A similar degree of improvement was also seen (3.7 fold) over cationic liposomes alone.

H-MRRAHHRRRRASHRRMRGG-OH [Mu1]
Charge/AA ratio [1]: 0.63 | theoretical charge ratio of Mu1 to pCMVβ ([1]; 0.5/1.0 (w/w) Mu1 to pCMVβ, 12000 cations to 7500 anions): 1.6 | number of X-Gal positive cells (FIG. 3) (ND7 cells; 1/12/6 vs pCMVβ with DC-Chol/DOPE 1/3, 48 h): significantly enhanced the number of X-Gal positive cells | increase in the number of β galactosidase positive cells (ND7 cells; 1:12:6 pCMVβ:Mu1:DC-Chol/DOPE): 6 fold | cell loss (ND7 cells; Mu1 complex, any of the concentrations utilized): No obvious cell loss | improvement over cationic liposomes alone (COS-7 cells): 3.7 fold
